In patent US20040248964A1, “Analgesic uses of norketamine and ketamine/norketamine prodrugs” (priority 2002, published 2004):

How the values were obtained:
[1] = Norketamine i.v. drip in a patient with intractable bladder pain, pain level subjectively evaluated by the patient; type: in vivo, human
Description: A patient, weighing approximately 60 kg, presents with intractable bladder pain (interstitial ceptitis), which has been diagnosed previously. Pain management in this patient consists of 100 mg Demoral every 3 hours; Dilaudid 2-4 mg every 4 hours; Dalmane 30 mg per day; Duralgesic patches (fentanyl transdermal patches); bladder washes with Pyridium (phenaropyridine HCl), which is a urinary tract analgesic; and belladonna and opiate suppositories. In addition to the pain medication, the patient takes Zanax and Tagamet to alleviate gastric distress, and Compazine (an anti-emetic) to counteract nausea. Gastric distress and nausea in this patient result from the pain medication.
Despite the dosages and range of pain medications used by this patient, satisfactory pain management is not achieved.
A diagnostic pre-sacral, or ilio-hypogastric, nerve block is performed on this patient to alleviate the pain. Unfortunately, the effect of the block is temporary, and the block is associated with significant motor weakness. After the block wears off, the patient states that they are unable to function, as the most mundane activities are exhausting.
Norketamine (10 mg/cc) drip was administered i.v. over one hour, for a total dose of 40 mg norketamine. […] About 1 hour after norketamine infusion is discontinued, the patient reports that the level of pain has increased to about #15, and thereafter rapidly to its previous level. The patient continues to take the other pain medications without effect.

NMDA receptor = conditions: cited from earlier work
[2] = cited from earlier work
rats = conditions: intravenously or intraspinally; cited from earlier work
[3] = Nasal spray self-administration of norketamine in the same patient

## NC1(c2ccccc2Cl)CCCCC1=O (stereo not drawn) [Norketamine, 2-(2-chlorophenyl)-2-amino-cyclohexanone]
[1]; 10 mg/cc drip i.v. over one hour, total dose 40 mg, from #20, subjectively evaluated by the patient
  reduction of the pain level by a factor: 2
[1]; thereafter rapidly to its previous level
  pain level about 1 hour after norketamine infusion is discontinued: ~15
[1]; total dose 40 mg i.v. over one hour, level before #20
  pain level after norketamine infusion: 10-12
NMDA receptor
  binding to the NMDA receptor compared with S- or R-ketamine: less tightly
[2]; speculated
  anesthetic and analgesic potency relative to ketamine: one third
rats
  adverse sequelae compared with an equal dose of ketamine: fewer of the adverse sequelae
[3]; nasal administration
  control of breakthrough pain: particularly effective
[3]; nasal spray 100 mg/ml, 16 mg per spray, 1-2 sprays for severe pain
  pain management with nasal administration: remarkable pain management

## CCCCOC(=O)NC1(c2ccccc2Cl)CCCCC1=O (stereo not drawn)
other
  melting point: 130 to 132 °C

## CN[C@]1(c2ccccc2Cl)CCCCC1=O [S-ketamine, reference compound]
[2]; in vivo
  potency relative to R-ketamine: twice as potent

## CC(C)OC(=O)NC1(c2ccccc2Cl)CCCCC1=O (stereo not drawn)
other
  melting point: 124 to 126 °C

## CCOC(=O)NC1(c2ccccc2Cl)CCCCC1=O (stereo not drawn)
other
  melting point: 112 to 114 °C
